{"source": "patent US6916915B1", "about": "“Stressor regulated genes” (Duke University, priority 1998, dated 2005)", "tested_on": "C. elegans", "experiment": "Reverse-Northern dot-blot analysis of steady-state mRNA levels after cadmium exposure", "format": "in vivo, Caenorhabditis elegans", "conditions": "for Fold-change in mRNA levels following cadmium exposure, DDRT25: clone DDRT25; for Fold-change in mRNA levels following cadmium exposure, DDRT26: clone DDRT26; for Fold-change in mRNA levels following cadmium exposure, DDRT28: clone DDRT28; for Fold-change in mRNA levels following cadmium exposure, DDRT29: clone DDRT29; for Fold-change in mRNA levels following cadmium exposure, DDRT30: clone DDRT30; for Fold-change in mRNA levels following cadmium exposure, DDRT32: clone DDRT32; for Fold-change in mRNA levels following cadmium exposure, DDRT33D: clone DDRT33D; for Fold-change in mRNA levels following cadmium exposure, DDRT33U: clone DDRT33U; for Fold-change in mRNA levels following cadmium exposure, DDRT34: clone DDRT34; for Fold-change in mRNA levels following cadmium exposure, DDRT35: clone DDRT35; for Fold-change in mRNA levels following cadmium exposure, DDRT40: clone DDRT40; for Fold-change in mRNA levels following cadmium exposure, DDRT41: clone DDRT41; for Fold-change in mRNA levels following cadmium exposure, DDRT48: clone DDRT48; for Fold-change in mRNA levels following cadmium exposure, DDRT50: clone DDRT50; for Fold-change in mRNA levels following cadmium exposure, VL9: clone VL9; for Fold-change in mRNA levels following cadmium exposure, VL11: clone VL11; for Fold-change in mRNA levels following cadmium exposure, VL19: clone VL19; for Fold-change in mRNA levels following cadmium exposure, VL20: clone VL20; for Fold-change in mRNA levels following cadmium exposure, VL21: clone VL21", "method": "Growth and isolation of C. elegans—The N2 strain of C. elegans was grown in liquid S medium (0.1M NaCl, 50 mM potassium phosphate, pH 6.0, 5 μg/ml cholesterol, 10 mM potassium citrate, 3 mM CaCl2, 3 mM MgCl2, 50 μM EDTA, 25 μM FeSO4, 10 μM MnCl2, 10 μM ZnSO4 and 1 μM CuSO4) using E. coli OP50 as a food source (Brenner, S. (1974) Genetics 77, 71-94). In experiments where nematodes were exposed to cadmium, the medium was supplemented with 100 μM CdCl2 (Freedman, J. H. et al. (1993) J. Biol. Chem. 268, 2554-2564). C. elegans were grown in the presence of metal for 8 h or 24 h at ˜20° C. Nematodes were then collected following centrifugation at 800×g for 5 min. Pellets were suspended in 5 mM NaCl containing 35% sucrose (final concentration) and viable nematodes were collected from the top of the solution following centrifugation at 1000×g for 5 min at 4° C. Nematodes were then washed three times by suspension in M9 buffer (22 mM KH2PO4, 42 mM Na2HPO4, 85 mM NaCl, 1 mM MgSO4) followed by sedimentation at 800×g. Washed nematode pellets were finally suspended in a small volume of M9 buffer, rapidly frozen in liquid nitrogen and stored at −80° C.\nRNA isolation—Total RNA was isolated from mix-stage populations of C. elegans exposed to 100 μM CdCl2 for 8 h and 24 h and control, non-exposed nematodes. Frozen worms were first ground into a fine powder using a liquid nitrogen-cooled mortar and pestle. Powdered C. elegans (200 mg) were then homogenized in 2 ml of TRIzol (GIBCO/BRL). RNA was then collected from the aqueous phase following the addition of chloroform, precipitated by adding isopropyl alcohol and then air-dried. The dried RNA pellet was then dissolved in diethyl pyrocarbonate (DEPC)-treated water. For some experiments, poly(A^+) RNA was subsequently isolated using the Poly(A) Tract System following manufacturer's instructions (Promega).\nReverse-Northern dot-blot analysis—Changes in the steady-state levels of differentially expressed mRNAs in C. elegans following cadmium-exposure were also determined by reverse-Northern dot-blot analysis by the modified procedure of Zhang et al. (Cummins, C. et al. (1988) Mol. Cell. Biol 8, 5334-5349). Briefly, differentially expressed cDNAs that were previously cloned into pGEM-T were amplified using primers that anneal to the T7 and SP6 RNA polymerase binding sites, which flank the cDNA insert. cDNAs were amplified and subsequently purified using a PCR-spin column (QIAGEN). Approximately 100 ng of each amplified cDNA were denatured by mixing with 0.1N NaOH (final concentration) and incubating at 100° C. for 5 min. The solution was neutralized following the addition of 3×SSC (final concentration) and then the volume adjusted to 700 μl with dH2O. 200-μl of each sample was applied to one of three Nytran membranes in a Bio-Dot microfiltration apparatus (BioRad). Membranes were then baked for 30 min at 80° C. under vacuum. As positive and loading controls 100 ng of mtl-1 cDNA and myosin light chain DNA were also applied to each membrane, respectively.\nThree pools of single-stranded ^32P-labeled cDNA probes were prepared from poly(A^+) RNA isolated from control, 8 h and 24 h cadmium-treated nematodes. cDNAs were generated from a mixture of mRNAs in a 25 μl reverse transcriptase reactions which contained 2 μg poly(A^+) RNA, 1 μg oligo (dT)18 primer, reverse transcriptase buffer, 800 μM DATP, dGTP and dTTP, 4.5 μM dCTP, 100 μCi [α-^32P]dCTP (3000 Ci/mmol), 20 units RNase inhibitor and 200 units Moloney murine leukemia virus reverse transcriptase. The reaction mixture was incubated at 37° C. for 1 h, then at 95° C. for 5 min to terminate the reaction. Unincorporated nucleotides were separated from the labeled cDNAs by using a G-25 spin column (Boehringer Mannheim). Equal amounts (5×10^6 cpm/ml) of each radioactive cDNA mixture were heat-denatured and then hybridized separately to one of the three membranes at 42° C. for 16 h in hybridization buffer. […]", "key": {"[1]": {"conditions": "8 hours, 100 μM CdCl2, relative to non-exposed, normalized to myosin light chain mRNA"}, "[2]": {"conditions": "24 hours, 100 μM CdCl2, relative to non-exposed, normalized to myosin light chain mRNA"}}}
{"compound": "[Cl][Cd][Cl]", "note": "[cadmium, CdCl2]", "values": [{"measurement": "Fold-change in mRNA levels following cadmium exposure, DDRT23", "setting": "clone DDRT23, 24 hours, 100 μM CdCl2, relative to non-exposed, normalized to myosin light chain mRNA", "result": 3.0, "unit": "fold"}, {"measurement": "Fold-change in mRNA levels following cadmium exposure, DDRT25", "setting": "[1]", "result": 3.9, "unit": "fold"}, {"measurement": "Fold-change in mRNA levels following cadmium exposure, DDRT25", "setting": "[2]", "result": 4.4, "unit": "fold"}, {"measurement": "Fold-change in mRNA levels following cadmium exposure, DDRT26", "setting": "[1]", "result": 4.4, "unit": "fold"}, {"measurement": "Fold-change in mRNA levels following cadmium exposure, DDRT26", "setting": "[2]", "result": 4.7, "unit": "fold"}, {"measurement": "Fold-change in mRNA levels following cadmium exposure, DDRT28", "setting": "[1]", "result": 1.7, "unit": "fold"}, {"measurement": "Fold-change in mRNA levels following cadmium exposure, DDRT28", "setting": "[2]", "result": 1.8, "unit": "fold"}, {"measurement": "Fold-change in mRNA levels following cadmium exposure, DDRT29", "setting": "[1]", "result": 3.9, "unit": "fold"}, {"measurement": "Fold-change in mRNA levels following cadmium exposure, DDRT29", "setting": "[2]", "result": 4.4, "unit": "fold"}, {"measurement": "Fold-change in mRNA levels following cadmium exposure, DDRT30", "setting": "[1]", "result": 2.7, "unit": "fold"}, {"measurement": "Fold-change in mRNA levels following cadmium exposure, DDRT30", "setting": "[2]", "result": 3.1, "unit": "fold"}, {"measurement": "Fold-change in mRNA levels following cadmium exposure, DDRT32", "setting": "[1]", "result": 2.6, "unit": "fold"}, {"measurement": "Fold-change in mRNA levels following cadmium exposure, DDRT32", "setting": "[2]", "result": 2.4, "unit": "fold"}, {"measurement": "Fold-change in mRNA levels following cadmium exposure, DDRT33D", "setting": "[1]", "result": 3.1, "unit": "fold"}, {"measurement": "Fold-change in mRNA levels following cadmium exposure, DDRT33D", "setting": "[2]", "result": 3.5, "unit": "fold"}, {"measurement": "Fold-change in mRNA levels following cadmium exposure, DDRT33U", "setting": "[1]", "result": 3.0, "unit": "fold"}, {"measurement": "Fold-change in mRNA levels following cadmium exposure, DDRT33U", "setting": "[2]", "result": 3.5, "unit": "fold"}, {"measurement": "Fold-change in mRNA levels following cadmium exposure, DDRT34", "setting": "[1]", "result": 2.4, "unit": "fold"}, {"measurement": "Fold-change in mRNA levels following cadmium exposure, DDRT34", "setting": "[2]", "result": 3.0, "unit": "fold"}, {"measurement": "Fold-change in mRNA levels following cadmium exposure, DDRT35", "setting": "[1]", "result": 1.6, "unit": "fold"}, {"measurement": "Fold-change in mRNA levels following cadmium exposure, DDRT35", "setting": "[2]", "result": 1.9, "unit": "fold"}, {"measurement": "Fold-change in mRNA levels following cadmium exposure, DDRT38", "setting": "clone DDRT38, 24 hours, 100 μM CdCl2, relative to non-exposed, normalized to myosin light chain mRNA", "result": 1.8, "unit": "fold"}, {"measurement": "Fold-change in mRNA levels following cadmium exposure, DDRT40", "setting": "[1]", "result": 1.9, "unit": "fold"}, {"measurement": "Fold-change in mRNA levels following cadmium exposure, DDRT40", "setting": "[2]", "result": 2.3, "unit": "fold"}, {"measurement": "Fold-change in mRNA levels following cadmium exposure, DDRT41", "setting": "[1]", "result": 2.2, "unit": "fold"}, {"measurement": "Fold-change in mRNA levels following cadmium exposure, DDRT41", "setting": "[2]", "result": 2.1, "unit": "fold"}, {"measurement": "Fold-change in mRNA levels following cadmium exposure, DDRT48", "setting": "[1]", "result": 2.1, "unit": "fold"}, {"measurement": "Fold-change in mRNA levels following cadmium exposure, DDRT48", "setting": "[2]", "result": 2.6, "unit": "fold"}, {"measurement": "Fold-change in mRNA levels following cadmium exposure, DDRT50", "setting": "[1]", "result": 2.2, "unit": "fold"}, {"measurement": "Fold-change in mRNA levels following cadmium exposure, DDRT50", "setting": "[2]", "result": 2.2, "unit": "fold"}, {"measurement": "Fold-change in mRNA levels following cadmium exposure, VL3", "setting": "clone VL3, 24 hours, 100 μM CdCl2, relative to non-exposed, normalized to myosin light chain mRNA", "result": 2.4, "unit": "fold"}, {"measurement": "Fold-change in mRNA levels following cadmium exposure, VL9", "setting": "[1]", "result": "−1.7", "unit": "fold"}, {"measurement": "Fold-change in mRNA levels following cadmium exposure, VL9", "setting": "[2]", "result": "−2.3", "unit": "fold"}, {"measurement": "Fold-change in mRNA levels following cadmium exposure, VL11", "setting": "[1]", "result": 3.2, "unit": "fold"}, {"measurement": "Fold-change in mRNA levels following cadmium exposure, VL11", "setting": "[2]", "result": 6.1, "unit": "fold"}, {"measurement": "Fold-change in mRNA levels following cadmium exposure, VL12", "setting": "clone VL12 (mtl-1), 24 hours, 100 μM CdCl2, relative to non-exposed, normalized to myosin light chain mRNA", "result": 5.2, "unit": "fold"}, {"measurement": "Fold-change in mRNA levels following cadmium exposure, VL19", "setting": "[1]", "result": 3.6, "unit": "fold"}, {"measurement": "Fold-change in mRNA levels following cadmium exposure, VL19", "setting": "[2]", "result": 5.0, "unit": "fold"}, {"measurement": "Fold-change in mRNA levels following cadmium exposure, VL20", "setting": "[1]", "result": 2.8, "unit": "fold"}, {"measurement": "Fold-change in mRNA levels following cadmium exposure, VL20", "setting": "[2]", "result": 5.0, "unit": "fold"}, {"measurement": "Fold-change in mRNA levels following cadmium exposure, VL21", "setting": "[1]", "result": 2.2, "unit": "fold"}, {"measurement": "Fold-change in mRNA levels following cadmium exposure, VL21", "setting": "[2]", "result": 2.5, "unit": "fold"}, {"measurement": "decrease in level of expression, a single clone", "setting": "following cadmium exposure", "result": "~2", "unit": "fold"}, {"measurement": "increase in steady-state level of expression, forty-eight of the clones", "setting": "following cadmium exposure", "result": "2-6 fold"}, {"measurement": "decrease in level of expression for VL9", "setting": "in response to cadmium, time not stated", "result": "~2", "unit": "fold"}]}
